Assays:
[1] = tested on: MIA PaCa-2 human pancreatic carcinoma; assay: MIA PaCa-2 CCK-8 proliferation assay; format: cell-based; details: Homo sapiens, MIA PaCa-2, 72 h, MIA PaCa-2 cells
Outline: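 Three KRAS(G12C) lines are used, MIA PaCa-2 at two mutant copies and the NSCLC lines NCI-H358 and NCI-H23 at one. Each compound is titrated 3-fold from 20 μM to 1.02 nM, and proliferation is scored by CCK-8.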

[2] = target: T1, KRAS(G12C) (Homo sapiens, UniProt P01116, G12C); assay: KRAS(G12C)/SOS1 homogeneous time-resolved fluorescence (HTRF) assay; parameters: purchased Cisbio 63ADK000CB16PEG; details: absence of GTP, 4° C. for 3 hr, read-out: KRAS (G12C) binding
Outline: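 HTRF kit measuring compound-induced block of KRAS(G12C)-SOS1 interaction without GTP. Compounds tested as 3-fold serial dilutions down to 1.02 nM, incubated with reaction components 3 h at 4 °C in sealed plates before fluorescence read.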

[3] = target: T1, KRAS(G12C); assay: KRAS(G12C) Western blot protein degradation assay in LU65A cells; format: cell-based; parameters: LU65A human lung cancer cell line, which expresses KRAS(G12C); host or cells: LU65A; details: 6 hr
Outline: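 Cells treated with compound at various concentrations at 37 °C for 48 hr (MIA PaCa-2) or 6 hr (LU65A), then lysed in RIPA. Protein-normalized lysates immunoblotted for KRAS with β-actin, fluorescence quantified; DC50 is the concentration giving 50% of maximal KRAS degradation.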

T1 sequence (P01116 1-188 isoform P01116-2 G12C): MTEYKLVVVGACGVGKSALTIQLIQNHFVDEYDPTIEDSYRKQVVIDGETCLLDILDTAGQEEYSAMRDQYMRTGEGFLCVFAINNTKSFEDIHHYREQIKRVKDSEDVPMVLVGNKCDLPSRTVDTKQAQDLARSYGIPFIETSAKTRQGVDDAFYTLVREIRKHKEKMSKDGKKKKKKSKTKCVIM

EC50 [1] [nM]	IC50 [2] [nM]	DC50 [3] [nM]	SMILES
> 1000	100 to 1000	100 to 1000	C=CC(=O)N1CCN(c2nc(OCCN3CCN(C(=O)C4CCN(Cc5ccc(-n6c(C(=O)NCC(F)(F)F)nnc6-c6cc(C(C)C)c(O)cc6O)cc5)CC4)C[C@H]3CN(C)C)nc3c2CCN(c2cccc4cccc(Cl)c24)C3)C[C@@H]1CC#N [Compound 266, 4-(4-((4-((R)-4-(2-((4-((S)-4-acryloyl-3-(cyanomethyl)piperazin-1-yl)-7-(8-chloronaphthalen-1-yl)-5,6,7,8-tetrahydropyrido[3,4-d]pyrimidin-2-yl)oxy)ethyl)-3-((dimethylamino)methyl)piperazine-1-carbonyl)piperidin-1-yl)methyl)phenyl)-5-(2,4-dihydroxy-5-isopropylphenyl)-N-(2,2,2-trifluoroethyl)-4H-1,2,4-triazole-3-carboxamide]
100 to 1000	< 100	< 100	C=CC(=O)N1CCN(c2nc(OC[C@@H]3C[C@H](N4CCN(C(=O)C5CCN(Cc6ccc(-n7c(C(=O)NCC)nnc7-c7cc(C(C)C)c(O)cc7O)cc6)CC5)CC4)CN3C)nc3c2CCN(c2cccc4cccc(Cl)c24)C3)C[C@@H]1CC#N [Compound 283, 4-{4-[(4-{4-[(3S,5S)-5-({[7-(8-chloronaphthalen-1-yl)-4-[(3S)-3-(cyanomethyl)-4-(prop-2-enoyl)piperazin-1-yl]-5H,6H,8H-pyrido[3,4-d]pyrimidin-2-yl]oxy}methyl)-1-methylpyrrolidin-3-yl]piperazine-1-carbonyl}piperidin-1-yl)methyl]phenyl}-5-(2,4-dihydroxy-5-isopropylphenyl)-N-ethyl-1,2,4-triazole-3-carboxamide]
100 to 1000	100 to 1000	> 1000	C=CC(=O)N1CCN(c2nc(OC[C@@H]3C[C@@H](N(C)C(=O)C4CCN(Cc5ccc(-n6c(C(=O)NCC(F)(F)F)nnc6-c6cc(C(C)C)c(O)cc6O)cc5)CC4)CN3C)nc3c2CCN(c2cccc4cccc(Cl)c24)C3)C[C@@H]1CC#N [Compound 235, N-((3R,5S)-5-(((4-((S)-4-acryloyl-3-(cyanomethyl)piperazin-1-yl)-7-(8-chloronaphthalen-1-yl)-5,6,7,8-tetrahydropyrido[3,4-d]pyrimidin-2-yl)oxy)methyl)-1-methylpyrrolidin-3-yl)-1-(4-(3-(2,4-dihydroxy-5-isopropylphenyl)-5-((2,2,2-trifluoroethyl)carbamoyl)-4H-1,2,4-triazol-4-yl)benzyl)-N-methylpiperidine-4-carboxamide]
< 100	< 100	100 to 1000	C=CC(=O)N1CCN(c2nc(OC[C@@H]3C[C@H](N4CCN(Cc5ccc(-n6c(C(=O)NCC)nnc6-c6cc(C(C)C)c(O)cc6O)cc5)CC4)CN3C)nc3c2CCN(c2cccc4cccc(C)c24)C3)C[C@@H]1CC#N [Compound 280, 4-[4-({4-[(3S,5S)-5-[({4-[(3S)-3-(cyanomethyl)-4-(prop-2-enoyl)piperazin-1-yl]-7-(8-methylnaphthalen-1-yl)-5H,6H,8H-pyrido[3,4-d]pyrimidin-2-yl}oxy)methyl]-1-methylpyrrolidin-3-yl]piperazin-1-yl}methyl)phenyl]-5-(2,4-dihydroxy-5-iso-propylphenyl)-N-ethyl-1,2,4-triazole-3-carboxamide]
< 100	100 to 1000	> 1000	C=C(F)C(=O)N1CCN(c2nc(OC[C@@H]3CC[C@H](CN4CCN(Cc5ccc(-n6c(O)nnc6-c6cc(C(C)C)c(O)cc6O)cc5)CC4)N3C)nc3c2CCN(c2cccc4ccccc24)C3)C[C@@H]1CC#N [Compound 286, 2-[(2S)-4-(2-{[(2S,5R)-5-{[4-({4-[3-(2,4-dihydroxy-5-isopropylphenyl)-5-hydroxy-1,2,4-triazol-4-yl]phenyl}methyl)piperazin-1-yl]methyl}-1-methylpyrrolidin-2-yl]methoxy}-7-(naphthalen-1-yl)-5H,6H,8H-pyrido[3,4-d]pyrimidin-4-yl)-1-(2-fluoroprop-2-enoyl)piperazin-2-yl]acetonitrile]
100 to 1000	< 100	> 1000	C=CC(=O)N1CCN(c2nc(OC[C@@H]3CC[C@H](CN4CCN(Cc5ccc(-n6c(O)nnc6-c6cc(C(C)C)c(O)cc6O)cc5)CC4)N3C)nc3c2CCN(c2cccc4ccc(F)c(Cl)c24)C3)C[C@@H]1CC#N [Compound 268, 2-[(2S)-4-[7-(8-chloro-7-fluoronaphthalen-1-yl)-2-{[(2S,5R)-5-{[4-({4-[3-(2,4-dihydroxy-5-isopropylphenyl)-5-hydroxy-1,2,4-triazol-4-yl]phenyl}methyl)piperazin-1-yl]methyl}-1-methylpyrrolidin-2-yl]methoxy}-5H,6H,8H-pyrido[3,4-d]pyramidin-4-yl]-1-(prop-2-enoyl)piperazin-2-yl]acetonitrile]
100 to 1000	< 100	> 1000	C=CC(=O)N1CCN(c2nc(OC[C@@H]3CC[C@H](CN4CCN(C(=O)C5CCN(Cc6ccc(-n7c(C(=O)NCC)nnc7-c7cc(C(C)C)c(O)cc7O)cc6)CC5)CC4)N3C)nc3c2CCN(c2cccc4cccc(C)c24)C3)C[C@@H]1CC#N [Compound 274, 4-(4-{[4-(4-{[(2R,5S)-5-[({4-[(3S)-3-(cyanomethyl)-4-(prop-2-enoyl)piperazin-1-yl]-7-(8-methylnaphthalen-1-yl)-5H,6H,8H-pyrido[3,4-d]pyrimidin-2-yl}oxy)methyl]-1-methylpyrrolidin-2-yl]methyl}piperazine-1-carbonyl)piperidin-1-yl]methyl}phenyl)-5-(2,4-dihydroxy-5-isopropylphenyl)-N-ethyl-1,2,4-triazole-3-carboxamide]
< 100	< 100	> 1000	C=CC(=O)N1CCN(c2nc(OC[C@@H]3CC[C@H](CN4CCN(Cc5ccc(-n6c(C(=O)NCC)nnc6-c6cc(C(C)C)c(O)cc6O)cc5)CC4)N3C)nc3c2CCN(c2cccc4ccccc24)C3)C[C@@H]1CC#N [Compound 288, 4-{4-[(4-{[(2R,5S)-5-[({4-[(3S)-3-(cyanomethyl)-4-(prop-2-enoyl)piperazin-1-yl]-7-(naphthalen-1-yl)-5H,6H,8H-pyrido[3,4-d]pyrimidin-2-yl}oxy)methyl]-1-methylpyrrolidin-2-yl]methyl}piperazin-1-yl)methyl]phenyl}-5-(2,4-dihydroxy-5-isopropylphenyl)-N-ethyl-1,2,4-triazole-3-carboxamide]
< 100	< 100	> 1000	C=CC(=O)N1CCN(c2nc(OC[C@@H]3CC[C@H](CN4CCN(Cc5ccc(-n6c(C(=O)NCC)nnc6-c6cc(C(C)C)c(O)cc6O)cc5)CC4)N3C)nc3c2CCN(c2cccc4cccc(C)c24)C3)C[C@@H]1CC#N [Compound 289, 4-{4-[(4-{[(2R,5S)-5-[({4-[(3S)-3-(cyanomethyl)-4-(prop-2-enoyl)piperazin-1-yl]-7-(8-methylnaphthalen-1-yl)-5H,6H,8H-pyrido[3,4-d]pyrimidin-2-yl}oxy)methyl]-1-methylpyrrolidin-2-yl]methyl}piperazin-1-yl)methyl]phenyl}-5-(2,4-dihydroxy-5-isopropylphenyl)-N-ethyl-1,2,4-triazole-3-carboxamide]
